Experiments:
P2X purinoceptor 1 [1] = molecular target: P2X purinoceptor 1 (Homo sapiens, UniProt P51575); assay: Antagonist activity at non-desensitizing human P2X1 receptor ( P2X2/P2X1 chimera) expressed in human 1321N1 cells assessed as inhibition of ATP-induced calcium influx pre-incubated for 30 mins before ATP stimulation by FLIPR assay relative to control; format: cell-based
[2] = molecular target: T1, P2X purinoceptor 1 (Homo sapiens) (UniProt P51575); assay: Antagonist activity at non-desensitizing human P2X1 receptor ( P2X2/P2X1 chimera) expressed in human 1321N1 cells assessed as inhibition of ATP-induced calcium influx at 100 uM pre-incubated for 30 mins before ATP stimulation by FLIPR assay relative to control; format: cell-based
T1 sequence (whole entry): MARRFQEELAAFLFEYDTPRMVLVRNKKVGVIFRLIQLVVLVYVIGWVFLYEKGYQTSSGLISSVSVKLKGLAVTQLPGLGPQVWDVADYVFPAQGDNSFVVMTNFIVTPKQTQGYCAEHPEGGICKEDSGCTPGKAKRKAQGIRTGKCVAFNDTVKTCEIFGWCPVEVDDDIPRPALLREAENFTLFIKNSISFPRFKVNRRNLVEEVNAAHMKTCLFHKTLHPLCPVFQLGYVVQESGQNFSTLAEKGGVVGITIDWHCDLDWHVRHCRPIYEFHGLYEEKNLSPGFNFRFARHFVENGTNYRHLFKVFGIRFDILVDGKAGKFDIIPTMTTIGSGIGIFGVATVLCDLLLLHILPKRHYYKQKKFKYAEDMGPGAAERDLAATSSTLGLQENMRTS

[3] = molecular target: T2, P2X purinoceptor 2 (Homo sapiens) (UniProt Q9UBL9); assay: Antagonist activity at human P2X2 receptor expressed in human 1321N1 cells assessed as inhibition of ATP-induced cytosolic calcium influx at 10 uM preincubated for 30 mins followed by ATP addition by Fluo-4 AM dye-based fluorescence assay relative to control; format: cell-based
T2 sequence (whole entry): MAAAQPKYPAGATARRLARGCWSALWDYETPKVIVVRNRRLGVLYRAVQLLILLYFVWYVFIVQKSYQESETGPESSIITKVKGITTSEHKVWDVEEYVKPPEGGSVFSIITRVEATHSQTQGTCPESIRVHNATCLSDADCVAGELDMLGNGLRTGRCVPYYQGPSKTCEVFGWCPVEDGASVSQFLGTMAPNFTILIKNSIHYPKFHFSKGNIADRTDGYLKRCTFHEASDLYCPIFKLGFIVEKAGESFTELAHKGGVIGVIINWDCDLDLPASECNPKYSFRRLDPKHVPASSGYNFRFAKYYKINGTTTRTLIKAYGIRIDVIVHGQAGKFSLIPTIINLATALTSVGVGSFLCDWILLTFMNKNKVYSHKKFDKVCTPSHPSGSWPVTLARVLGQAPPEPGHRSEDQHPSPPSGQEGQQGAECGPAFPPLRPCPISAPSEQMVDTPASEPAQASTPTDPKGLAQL

P2X purinoceptor 3 = molecular target: T3, P2X purinoceptor 3 (Homo sapiens, UniProt P56373); assay: Antagonist activity at human P2X3 receptor expressed in human 1321N1 cells assessed as inhibition of ATP-induced cytosolic calcium influx preincubated for 30 mins followed by ATP addition by Fluo-4 AM dye-based fluorescence assay; format: cell-based
T3 sequence (P56373 whole entry): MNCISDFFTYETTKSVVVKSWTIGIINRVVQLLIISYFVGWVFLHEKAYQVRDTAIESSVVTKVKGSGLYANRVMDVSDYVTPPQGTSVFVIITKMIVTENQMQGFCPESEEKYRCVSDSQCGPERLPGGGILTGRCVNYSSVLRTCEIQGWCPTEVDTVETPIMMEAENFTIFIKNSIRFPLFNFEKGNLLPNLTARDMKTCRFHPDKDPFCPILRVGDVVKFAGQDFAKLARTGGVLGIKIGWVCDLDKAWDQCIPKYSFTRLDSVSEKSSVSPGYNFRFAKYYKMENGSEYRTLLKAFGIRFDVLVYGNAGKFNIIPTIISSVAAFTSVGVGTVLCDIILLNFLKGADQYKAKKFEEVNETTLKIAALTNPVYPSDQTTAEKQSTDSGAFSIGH

[4] = molecular target: T4, P2X purinoceptor 3 (Homo sapiens) (UniProt P56373); assay: Antagonist activity at human P2X3 receptor expressed in human 1321N1 cells assessed as inhibition of ATP-induced cytosolic calcium influx at 10 uM preincubated for 30 mins followed by ATP addition by Fluo-4 AM dye-based fluorescence assay relative to control; format: cell-based
T4 sequence (whole entry): T3 sequence (P56373 whole entry)

[5] = molecular target: T1, P2X purinoceptor 1 (Homo sapiens); assay: Antagonist activity at non-desensitizing human P2X1 receptor ( P2X2/P2X1 chimera) expressed in human 1321N1 cells assessed as inhibition of ATP-induced calcium influx at 10 uM pre-incubated for 30 mins before ATP stimulation by FLIPR assay relative to control; format: cell-based
P2X purinoceptor 2 = molecular target: T5, P2X purinoceptor 2 (Homo sapiens, UniProt Q9UBL9); assay: Antagonist activity at human P2X2 receptor expressed in human 1321N1 cells assessed as inhibition of ATP-induced cytosolic calcium influx preincubated for 30 mins followed by ATP addition by Fluo-4 AM dye-based fluorescence assay; format: cell-based
T5 sequence (Q9UBL9 whole entry): T2 sequence (whole entry)

P2X purinoceptor 4 = molecular target: T6, P2X purinoceptor 4 (Homo sapiens, UniProt Q99571); assay: Antagonist activity at human P2X4 receptor expressed in human 1321N1 cells assessed as inhibition of ATP-induced cytosolic calcium influx preincubated for 30 mins followed by ATP addition by Fluo-4 AM dye-based fluorescence assay; format: cell-based
T6 sequence (Q99571 whole entry): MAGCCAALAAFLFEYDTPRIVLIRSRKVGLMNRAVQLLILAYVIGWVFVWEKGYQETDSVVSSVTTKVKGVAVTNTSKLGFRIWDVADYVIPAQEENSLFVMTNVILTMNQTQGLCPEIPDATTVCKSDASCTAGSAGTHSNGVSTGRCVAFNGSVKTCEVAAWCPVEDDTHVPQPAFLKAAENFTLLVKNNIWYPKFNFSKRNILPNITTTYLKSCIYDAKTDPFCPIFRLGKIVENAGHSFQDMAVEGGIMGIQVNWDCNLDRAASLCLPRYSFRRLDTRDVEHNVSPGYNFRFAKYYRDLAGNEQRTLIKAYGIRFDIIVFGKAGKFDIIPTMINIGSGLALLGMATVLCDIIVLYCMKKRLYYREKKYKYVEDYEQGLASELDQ

P2X purinoceptor 7 = molecular target: T7, P2X purinoceptor 7 (Homo sapiens, UniProt Q99572); assay: Antagonist activity at human P2X7 receptor expressed in human 1321N1 cells assessed as inhibition of ATP-induced cytosolic calcium influx preincubated for 30 mins followed by ATP addition by Fluo-4 AM dye-based fluorescence assay; format: cell-based
T7 sequence (Q99572 whole entry): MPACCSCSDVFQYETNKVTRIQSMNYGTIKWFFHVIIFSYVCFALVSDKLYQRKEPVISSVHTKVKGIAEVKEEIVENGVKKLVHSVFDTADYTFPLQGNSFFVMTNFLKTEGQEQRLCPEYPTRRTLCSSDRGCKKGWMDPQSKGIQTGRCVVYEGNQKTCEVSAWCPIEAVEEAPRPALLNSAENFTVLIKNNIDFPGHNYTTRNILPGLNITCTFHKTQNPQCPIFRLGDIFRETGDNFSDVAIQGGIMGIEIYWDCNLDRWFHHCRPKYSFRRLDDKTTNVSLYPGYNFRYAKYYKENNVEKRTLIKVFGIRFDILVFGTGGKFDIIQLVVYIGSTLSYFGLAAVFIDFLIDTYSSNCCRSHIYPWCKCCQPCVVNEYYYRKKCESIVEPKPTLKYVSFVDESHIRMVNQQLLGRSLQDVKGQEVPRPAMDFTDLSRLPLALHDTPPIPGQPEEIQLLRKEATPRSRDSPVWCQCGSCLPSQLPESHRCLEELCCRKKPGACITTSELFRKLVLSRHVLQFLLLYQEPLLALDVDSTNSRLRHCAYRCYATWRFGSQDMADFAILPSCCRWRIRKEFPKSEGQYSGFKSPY

[6] = molecular target: T1, P2X purinoceptor 1 (Homo sapiens); assay: Antagonist activity at non-desensitizing human P2X1 receptor ( P2X2/P2X1 chimera) expressed in human 1321N1 cells assessed as inhibition of ATP-induced calcium influx at 1 uM pre-incubated for 30 mins before ATP stimulation by FLIPR assay relative to control; format: cell-based
P2X purinoceptor 1 [7] = molecular target: T8, P2X purinoceptor 1 (Rattus norvegicus, UniProt P47824); assay: Antagonist activity at rat P2X1 receptor
T8 sequence (P47824 whole entry): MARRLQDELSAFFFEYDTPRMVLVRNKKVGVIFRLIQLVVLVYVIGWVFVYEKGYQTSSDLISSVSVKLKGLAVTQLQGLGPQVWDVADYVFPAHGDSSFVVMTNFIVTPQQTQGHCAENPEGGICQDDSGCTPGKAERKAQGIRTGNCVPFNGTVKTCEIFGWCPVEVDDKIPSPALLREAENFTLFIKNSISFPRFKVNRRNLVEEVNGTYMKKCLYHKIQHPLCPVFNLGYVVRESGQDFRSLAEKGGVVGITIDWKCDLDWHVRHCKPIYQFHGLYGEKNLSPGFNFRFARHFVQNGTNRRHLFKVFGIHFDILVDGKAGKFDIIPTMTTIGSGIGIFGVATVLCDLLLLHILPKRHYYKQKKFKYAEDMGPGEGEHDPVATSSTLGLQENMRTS

[8] = molecular target: T1, P2X purinoceptor 1 (Homo sapiens); assay: Antagonist activity P2X1 receptor in Apyrase pre-treated human platelets assessed as inhibition of TRAP6-induced platelet aggregation pre-incubated for 30 mins before TRAP6 stimulation by aggregometry relative to control; format: cell-based
[9] = molecular target: T1, P2X purinoceptor 1 (Homo sapiens); assay: Antagonist activity P2X1 receptor in human platelets assessed as inhibition of ADP-induced platelet aggregation pre-incubated for 30 mins before ADP stimulation by aggregometry relative to control; format: cell-based

SMILES | inhibition [3] [%] | IC50 (P2X purinoceptor 3) [nM] | inhibition [4] [%] | IC50 (P2X purinoceptor 2) [nM] | IC50 (P2X purinoceptor 4) [nM] | IC50 (P2X purinoceptor 7) [nM] | IC50 (P2X purinoceptor 1 [7]) [nM] | inhibition [8] [%] | inhibition [9] [%] | IC50 (P2X purinoceptor 1 [1]) [nM] | inhibition [2] [%] | inhibition [5] [%] | inhibition [6] [%]
O=C(Nc1cc(C(F)(F)F)cc(C(F)(F)F)c1)N1CCCc2cccc(O)c21 |  |  |  |  |  |  |  |  |  | 10400 | 77 |  | 
O=C(Nc1cc([N+](=O)[O-])cc(C(F)(F)F)c1)c1cccc(Cl)c1O |  |  |  |  |  |  |  |  |  | 219 | 83 |  | 
O=C(Nc1cccc(Cl)c1)c1cc(Cl)ccc1O | 0 | > 10000 | 3 | > 10000 | 135 | 599 |  |  |  | 75.6 |  | 64 | 
COc1ccc(Cl)cc1C(=O)Nc1cc(C(F)(F)F)cc(C(F)(F)F)c1 |  |  |  |  |  |  |  |  |  | > 1000 |  |  | 17
Cc1ccc(C(=O)Nc2ccc(S(=O)(=O)O)c3cc(S(=O)(=O)O)cc(S(=O)(=O)O)c23)cc1NC(=O)c1cccc(NC(=O)Nc2cccc(C(=O)Nc3cc(C(=O)Nc4ccc(S(=O)(=O)O)c5cc(S(=O)(=O)O)cc(S(=O)(=O)O)c45)ccc3C)c2)c1 [SURAMIN] |  |  |  |  |  |  | 1000 to 1700 |  |  |  |  | > 90 | > 40
O=C(Nc1cccc(C(F)(F)F)c1)c1cc(Cl)ccc1O | 5 | > 10000 | 4 | > 10000 | 537 | 6320 |  |  |  | 91 |  | 75 | 

Further lines, with some results ahead:

inhibition [3] [%] | IC50 (P2X purinoceptor 3) [nM] | inhibition [4] [%] | IC50 (P2X purinoceptor 2) [nM] | IC50 (P2X purinoceptor 4) [nM] | IC50 (P2X purinoceptor 7) [nM] | IC50 (P2X purinoceptor 1 [7]) [nM] | inhibition [8] [%] | inhibition [9] [%] | SMILES | IC50 (P2X purinoceptor 1 [1]) [nM] | inhibition [2] [%] | inhibition [5] [%] | inhibition [6] [%]
15 | > 10000 | 30 | > 10000 | 155 | 315 |  |  |  | O=C(Nc1cc(C(F)(F)F)cc(C(F)(F)F)c1)c1ccccc1O | 76.9 |  | 79 | 
13 | > 10000 | 28 | > 10000 | 48.8 | 177 |  |  |  | O=C(Nc1cc(C(F)(F)F)cc(C(F)(F)F)c1)c1cccc(Cl)c1O | 58 |  | 83 | 
 |  |  |  |  |  |  | 8 | 27 | O=S(=O)(Nc1cc(C(F)(F)F)cc(C(F)(F)F)c1)c1cc(Cl)ccc1O | 439 |  | 80 | 
 |  |  |  |  |  |  |  | 47 | O=C(Nc1cc(C(F)(F)F)cc(C(F)(F)F)c1)c1ccccc1 | 2220 |  | 79 | 

Reference: ChEMBL document CHEMBL4613266, “Discovery and Structure Relationships of Salicylanilide Derivatives as Potent, Non-acidic P2X1 Receptor Antagonists” (J Med Chem, 2020)
